Results from patent US20100041590A1, “Compounds” (priority 2006, published 2010).
Counter-ions that a name gives are not always drawn.

Molecular target: T1, SCD (SCD-containing rat microsomes) (Rattus norvegicus, UniProt P07308)
T1 construct: SCD-containing rat microsomes (2 μg protein); from tissue
T1 sequence (P07308 1-358): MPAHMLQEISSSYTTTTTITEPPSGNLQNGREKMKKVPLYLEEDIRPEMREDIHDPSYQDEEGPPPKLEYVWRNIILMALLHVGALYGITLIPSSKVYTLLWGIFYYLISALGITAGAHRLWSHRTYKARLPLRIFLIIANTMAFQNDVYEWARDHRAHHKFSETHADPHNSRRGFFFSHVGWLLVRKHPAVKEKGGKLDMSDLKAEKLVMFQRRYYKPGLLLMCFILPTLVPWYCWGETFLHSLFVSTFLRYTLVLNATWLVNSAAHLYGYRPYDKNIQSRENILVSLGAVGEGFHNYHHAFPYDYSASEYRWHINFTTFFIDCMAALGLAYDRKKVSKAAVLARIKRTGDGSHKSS
Experiment: in vitro assay for SCD activity based on production of [3H]H2O from [9,10-3H] stearoyl Coenzyme A
Format: biochemical
Settings: SCD-containing rat microsomes (2 μg protein), substrate 1 μM, 6 min incubation, 5 min preincubation with compound; read-out: average pIC50 value, in vitro assay for SCD activity (converted)
Protocol: The compounds of the present invention may be analysed in vitro for SCD activity using an assay based on the production of [^3H]H2O, which is released during the enzyme-catalyzed generation of the monounsaturated fatty acyl CoA product. The assay is performed in a 96-well filtration plates. The titrated substrate used in the assay is the [9,10-^3H] stearoyl Coenzyme A. After incubation for 6 minutes of SCD-containing rat microsomes (2 μg protein) and substrate (1 μM), the labelled fatty acid acyl-CoA species and microsomes are absorbed with charcoal and separated from [^3H]H2O by centrifugation. The formation of [^3H]H2O is used as a measure of SCD activity. Compounds at concentrations starting at 10 μM to 0.1 nM or vehicle (DMSO) are preincubated for 5 minutes with the microsomes before addition of the substrate. The concentration-responses are fitted with sigmoidal curves to obtain IC50 values.

SMILES | IC50
CC(C)COc1ccc(Cl)cc1Cn1nc(C(=O)Nc2ccc3c(c2)CCNC3)cc1C1CC1 [1-({5-chloro-2-[(2-methylpropyl)oxy]phenyl}methyl)-5-cyclopropyl-N-(1,2,3,4-tetrahydro-6-isoquinolinyl)-1H-pyrazole-3-carboxamide hydrochloride] | > 10 µM
CCCc1cc(C(=O)Nc2ccc3c(c2)CCNC3)nn1Cc1cc(Cl)ccc1OCC(C)C [1-({5-chloro-2-[(2-methylpropyl)oxy]phenyl}methyl)-5-propyl-N-(1,2,3,4-tetrahydro-6-isoquinolinyl)-1H-pyrazole-3-carboxamide hydrochloride] | 3.16 to 10 µM
CCc1cc(NC(=O)c2ccc3c(c2)CCNC3)nn1Cc1cc(Cl)ccc1OCC(C)C [Example 1, N-[1-({5-chloro-2-[(2-methylpropyl)oxy]phenyl}methyl)-5-ethyl-1H-pyrazol-3-yl]-1,2,3,4-tetrahydro-6-isoquinolinecarboxamide hydrochloride] | < 3.16 µM
CC(C)COc1ccc(Cl)cc1Cn1nc(NC(=O)c2ccc3c(c2)CCNC3)cc1C1CC1 [Example 2, N-[1-({5-chloro-2-[(2-methylpropyl)oxy]phenyl}methyl)-5-cyclopropyl-1H-pyrazol-3-yl]-1,2,3,4-tetrahydro-6-isoquinolinecarboxamide hydrochloride] | < 3.16 µM
